Measured values published in patent US7582653B2, “Mercaptophenyl naphthyl methane compounds and synthesis thereof” (Council of Scientific & Industrial Research, priority 2003, dated 2009).

Key:
[1] = test system: chick fetal bones in culture; assay: Inhibition of PTH-induced resorption of 45Ca from chick fetal bones in culture (antiresorptive activity in vitro); type: cell-based; settings: for T/C Ratio: PTH-induced 45Ca resorption, 96 h culture
Method: Test Procedure for Evaluation of Antiosteoporosis (Antiresorptive) Activity in Vitro:
Test solutions of the compounds of the present invention are prepared in appropriate solvents in concentration range of 5 millimolar to 400 millimolar, most preferably in concentrations of 20 millimolar. 5 μl of each concentration are used for evaluation of antiresorptive activity in vitro. In control experiments, 5 μl of appropriate solvent is used in lieu of test compound. Femur bones are isolated from chick embryos on day 11 post-ovulation. The adhering soft connective tissue is completely removed. Each femur bone is then placed in a drop of phosphate buffered saline (PBS) and is transferred to BGJb culture medium containing ^45CaCl2 and incubated for 2 h. Labeled femur bones are washed 2-3 times with PBS and transferred to BGJb medium containing parathyroid hormone and cultured for 96 h in the presence or absence of the compound of invention or the vehicle in BGJb medium. Contralateral femur of each fetus serves as corresponding control. Culture medium with the respective treatment in each well is changed after 48 h. On termination of the culture at 96 h, bones are transferred to 0.1 N HCl for 24 h. Radioactivity due to ^45Ca in the spent medium collected at 48 and 96 h of culture and HCl extract at 96 h of culture is quantified by Liquid Scintillation Spectrophotometer in 10 ml of the scintillation fluid. Bone resorbing activity is expressed as percentage of ^45Ca released into the culture medium and the effect of the compound of invention as percent of the corresponding contra-lateral control or T/C ratio as shown below:
Appropriate solvents are selected from solvents like water, normal saline, phosphate buffered saline, phosphate buffer, DMSO alone or in a suitable combination thereof.
It was devoid of any pos-coital antifertility and estrogenic activities in rats.

[2] = test system: MCF-7 cells; assay: Antiproliferative/cytotoxic activity in cultured MCF-7 cells (SRB assay); settings: 48 h incubation
[3] = test system: immature OVX rats; assay: Estrogen antagonistic activity: inhibition of EE-induced uterine weight gain in immature OVX rats; type: in vivo, rat; settings: daily dose 10 mg/kg with 0.02 mg/kg 17-alfa-ethynylestradiol, 3 days
Method: Test Procedure for Evaluation of Estrogen Antagonistic Activity:
Twenty-one-day-old immature female rats are bilaterally ovariectomized under light ether anesthesia and after post-operative rest for 7 days, are randomized into different treatment groups. Each rat receives the compounds of the invention and 0.02 mg/kg dose of 17-alfa-ethynylestradiol in 10% ethanol-distilled water once daily for 3 consecutive days on days 28-30 of age. A separate group consisting of animals receiving only 17-alfa-ethynylestradiol (0.02 mg/kg) in 10% ethanol-distilled water for similar duration are used for comparison. At autopsy on day 31 of age, vaginal smear of each rat is taken and uterus is carefully excised, gently blotted, weighed and fixed for histology and histomorphometry using image analysis. Inhibition in 17-alfa-ethynylestradiol-induced premature opening of vagina, cornification of vaginal epithelium, increase in uterine fresh weight, total uterine and endometrial area and uterine luminal epithelial cell height are taken as parameters for evaluation of estrogen antagonistic activity (Table 8).

[4] = test system: ovariectomized (OVX) female Sprague-Dawley rats; assay: Antiosteoporosis activity in vivo: bone mineral density in ovariectomized rats; parameters: species or system rat; settings: oral once daily days 1-30 post-ovariectomy
Method: Test Procedure for Evaluation of Antiosteoporosis Activity in Vivo:
(§1) The in vivo antiosteoporosis activity is evaluated in colony-bred adult (3-4 month old) female Sprague-Dawley rats or female retired breeder Sprague-Dawley rats ([…]; parity≧3). Animals are bilaterally ovariectomized (OVX) under light ether anesthesia and treated with the compound of the present invention, 17-alfa-ethynylestradiol (EE) or the vehicle once daily on days 1-30 post-ovariectomy (day 1: day of bilateral ovariectomy) by the oral route. One group consisting of females is sham operated and treated similarly with the vehicle. Animals of all the groups are autopsied 24 h after the last treatment. Before autopsy, 24 h fasting urine samples are collected in fresh containers using all-glass metabolic cages and stored at −20° C. until analyzed for calcium, phosphorus and creatinine. At autopsy, about 5 ml blood samples are collected by cardiac puncture from each rat under light ether anesthesia and serum is isolated and stored at −20° C. until analyzed for total and bone specific alkaline phosphatase, osteocalcin and calcium. Uterus of each rat is carefully excised, gently blotted, weighed and fixed for histology. Representative sections (5 μm) from each uterus are stained with haematoxylin and eosin. Femur and tibia of each rat are then dissected free of adhering tissue, fixed in 70% ethanol in physiological saline and stored at −20° C. until Bone Mineral Density (BMD) measurement. Before autopsy, whole body scan of each rat for measurement of BMD is performed on an Hologic QDR-4500A fan-beam densitometer, calibrated daily with Hologic hydroxyapatite anthropomorphic spine phantom using manufacturer provided software for small animals. BMD measurement of isolated bones is performed using identical regions of interest. Serum total alkaline phosphatase, osteocalcin, calcium ion content and urinary calcium and creatinine are estimated colorimetrically using commercial kits (Table 2).

[5] = test system: immature OVX rats; assay: Estrogen agonistic activity: uterine weight and morphometry in immature OVX rats; type: in vivo, rat
Method: Test Procedure for Evaluation of Estrogen Agonistic Activity:
Twenty-one-day-old immature female rats are bilaterally ovariectomized under light ether anesthesia and, after post-operative rest for 7 days, are randomized into different treatment groups. Each rat receives the compound of the invention once daily for 3 consecutive days on days 28-30 of age. A separate group consisting of animals receiving only the vehicle for similar duration serves as control. At autopsy 24 h after the last treatment on day 31 of age, vaginal smear of each rat is taken and uterus is carefully excised, gently blotted, weighed and fixed for histology and histomorphometry using image analysis. Premature opening of vagina, cornification of vaginal epithelium, increase in uterine fresh weight, total uterine and endometrial area and uterine luminal epithelial cell height are taken as parameters for evaluation of estrogen agonistic activity in comparison to rats of vehicle control group (Table 6).
(§2) For image analysis in estrogen agonistic activity evaluation studies, paraffin sections (6 μm thick) of the uterus stained with haematoxylin and eosin were analyzed microscopically. To determine changes in uterine tissue components, areas of whole uterus and endometrium and the thickness of uterine epithelium were measured using a computer-image analysis system (BioVis, Expert Vision, India). Briefly, microscopic images of uterus acquired through a CCD camera were loaded in to the image analysis program and spatially calibrated against a stage micrometer image taken at the same magnification. Using thresholding and line tools, the regions for measurements were selected and the area (mm^2) of whole uterine transection excluding the luminal space, the area (mm^2) of the endometrium only, and the thickness (μm) of luminal epithelial lining were measured. Luminal epithelial thickness data was the average of measurements made at 6 randomly selected sites of the lining (Table 7).

[6] = test system: retired breeder OVX rats; assay: Estrogen agonistic activity: uterine weight and morphometry in retired breeder OVX rats; type: in vivo, rat
Method: as §1, §2

[7] = test system: ovariectomized (OVX) female Sprague-Dawley rats; assay: Anti-hyperlipidaemic activity: blood serum total cholesterol in OVX rats; type: in vivo, rat; settings: days 1-30; for Total Cholesterol: blood serum
Method: Test Procedure for Evaluation of Anti-Hyperlipidaemic Activity:
The in vivo anti-hyperlipidaemic activity is evaluated in colony-bred adult (3-4 month old) female Sprague-Dawley rats or female retired breeder Sprague-Dawley rats ([…]; parity≧3). Animals are bilaterally ovariectomized (OVX) under light ether anesthesia and treated with the compound of the present invention, 17-alfa-ethynylestradiol (EE) or the vehicle once daily on days 1-30 post-ovariectomy (day 1: day of bilateral ovariectomy) by the oral route. One group consisting of females is sham operated and treated similarly with the vehicle. Animals of all the groups are autopsied 24 h after the last treatment. At autopsy, about 5 ml blood samples are collected by cardiac puncture from each rat under light ether anesthesia and serum is isolated and stored at −20° C. until analyzed for total cholesterol. The total cholesterol concentration is measured by a timed-end point method using a Beckman Synchron CX autoanalyser. In the reaction, cholesterol estrase hydrolyses cholesterol esters to free cholesterol and fatty acids. Free cholesterol is oxidized to cholestene-3-one and H2O2 by cholesterol oxidase. Peroxidase catalyses the reaction of H2O2 with 4-amino antipyrine and phenol to produce a colored quinoneimine product. Absorbance is recorded at 520 nm (Table 3).

## CS(=O)(=O)c1ccc(C(O)c2cccc3ccccc23)cc1 (stereo not drawn) [Example 4, (4-Methylsulfonylphenyl)-naphth-1-yl-carbinol]
other
  melting point: 160 °C
[1]; 100 μM
  T/C Ratio: 0.97

## CSc1ccc(C(=O)c2cccc3ccccc23)cc1 [Example 1, (4-Methylthiophenyl)-(naphth-1-yl)-ketone]
[2]
  LC50: Inactive
[3]
  Percent inhibition in EE induced uterine weight gain: 32%
[4]; Femur Global
  Increase in BMD (g/cm^2): Percent of OVX + vehicle treatment group, Percent Increase: 8%
[4]; Femur Neck
  Increase in BMD (g/cm^2): Percent of OVX + vehicle treatment group, Percent Increase: 13%
[4]; Tibia Global
  Increase in BMD (g/cm^2): Percent of OVX + vehicle treatment group, Percent Increase: 3.7%
[4]; Tibia proximal
  Increase in BMD (g/cm^2): Percent of OVX + vehicle treatment group, Percent Increase: 13.8%
[5]; daily dose 10 mg/kg
  Endometrium Epithelial Cell Height: 7.16 μm
  Endometrium Total Area: 0.085 mm^2
  Increase in uterine weight: Percent of OVX + vehicle treatment group, Percent Increase: 16%
  Uterus Total Area: 0.105 Mm^2
[6]; daily dose 10 mg/kg
  Endometrium Epithelial Cell Height: 9.63 μm
  Endometrium Total Area: 0.37 mm^2
  Increase in uterine weight: Percent of OVX + vehicle treatment group, Percent Increase: 41%
  Uterus Total Area: 1.38 Mm^2
[1]; 25 μM
  T/C Ratio: 0.77
[1]; 50 μM
  T/C Ratio: 0.60
[1]; 100 μM
  T/C Ratio: 0.44
[7]; daily dose 10 mg/kg oral
  Total Cholesterol: 20.00 mg/dL
  % Change in blood serum total cholesterol concentration: 21.94%

## O=C(c1ccc(OCCN2CCCCC2)cc1)c1c(-c2ccc(O)cc2)sc2cc(O)ccc12 [Raloxifene, reference compound]
[1]; chick foetal bone assay, concentration not stated
  T/C: 0.6

## CSc1ccc(C(O)c2cccc3ccccc23)cc1 (stereo not drawn) [Example 3, (4-Methylthiophenyl)-naphth-1-yl-carbinol]
other
  melting point: 80 °C
[1]; 50 μM
  T/C Ratio: 1.41

## CCSc1ccc(C(=O)c2cccc3ccccc23)cc1 [Example 11, (4-Ethylthiophenyl)-naphth-1-yl-ketone]
[1]; 100 μM
  T/C Ratio: 0.77

## C#C[C@]1(O)CC[C@H]2[C@@H]3CCc4cc(O)ccc4[C@H]3CC[C@@]21C [EE, 17-alfa-ethynylestradiol, reference compound]
[4]; Femur Global
  Increase in BMD (g/cm^2): Percent of OVX + vehicle treatment group, Percent Increase: 16.1%
[4]; Femur Neck
  Increase in BMD (g/cm^2): Percent of OVX + vehicle treatment group, Percent Increase: 13.5%
[4]; Tibia Global
  Increase in BMD (g/cm^2): Percent of OVX + vehicle treatment group, Percent Increase: 3.8%
[4]; Tibia proximal
  Increase in BMD (g/cm^2): Percent of OVX + vehicle treatment group, Percent Increase: 25.2%
[5]; daily dose 0.01 mg/kg
  Endometrium Epithelial Cell Height: 33.65 μm
  Endometrium Total Area: 0.57 mm^2
  Increase in uterine weight: Percent of OVX + vehicle treatment group, Percent Increase: 419%
  Uterus Total Area: 1.21 Mm^2
[6]; daily dose 0.5 mg/kg
  Endometrium Epithelial Cell Height: 46.36 μm
  Endometrium Total Area: 4.07 mm^2
  Increase in uterine weight: Percent of OVX + vehicle treatment group, Percent Increase: 260%
  Uterus Total Area: 6.86 Mm^2
[7]; daily dose 0.50 mg/kg oral
  Total Cholesterol: <5 mg/dL

## CS(=O)(=O)c1ccc(C(=O)c2cccc3ccccc23)cc1 [Example 2, (4-Methylsulfonylphenyl)-naphth-1-yl-ketone]
other
  melting point: 150 °C

## CS(=O)(=O)c1ccc(C(O)c2ccc3ccccc3c2)cc1 (stereo not drawn) [Example 9, (4-Methylsulfonylphenyl)-naphth-2-yl-carbinol]
other
  melting point: 100 °C
[1]; 100 μM
  T/C Ratio: 1.15

## CS(=O)(=O)c1ccc(C(=O)c2ccc3ccccc3c2)cc1 [Example 8, (4-Methylsulfonylphenyl)-naphth-2-yl-ketone]
other
  melting point: 160 °C
